Measurements as given in patent US6818203B2, “Use of perfluoroalkyl-containing metal complexes as contrast media in MR-imaging for visualization of plaque, tumors and necroses” (Schering Aktiengesellschaft, priority 2000, dated 2004).

Legend:
[1] = hydrodynamic micelle diameter (2 Rh) by photon correlation spectroscopy (PCS); assay type: physicochemical
In short: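 Aggregate size measured as hydrodynamic diameter (2 Rh) of the amphiphilic compounds in solution by photon correlation spectroscopy.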

iliac lymph nodes = assay: lymph node visualization (MRT) after intravenous administration in VX2-tumor-bearing rabbits; assay type: in vivo; conditions: 200 μmol of Gd/kg i.v.
myocardial infarction = assay: infarction visualization (MRT) after intravenous administration in rats with acutely induced myocardial infarction; assay type: in vivo; conditions: 6 hours after i.v. 100 μmol of Gd/kg
Text: The successful induction of an acute myocardial infarction was confirmed by means of NBT-staining.

[2] = organ distribution (including lymph node concentration) after intravenous administration in rats; assay type: in vivo; conditions: 24 hours after administration, 100 μmol Gd/kg i.v.
Experimental: (§1) After intravenous administration of 100 μmol of total gadolinium/kg of body weight of a polar Gd-chelate with perfluorinated side chains (metal complex X) in rats, the metal content in various organs as well as in the lymph nodes (pooled as mesenteric and peripheral lymph nodes) was determined 24 hours after administration (MW, n=2).
as §1, with “200” for “100”, “V)” for “X)”
as §1, with “200” for “100”, “III)” for “X)”

[3] = system: primary tumor (VX2-tumor implanted i.m.); assay: tumor visualization (MRT) after intravenous administration in VX2-tumor-bearing rabbits; assay type: in vivo; conditions: 200 μmol of Gd/kg i.v.
Experimental: The pictures of FIG. 6 show MR images of an iliac lymph node and of a primary tumor (VX2-tumor implanted i.m.) precontrast, 60 minutes and 20 hours after intravenous administration of 100 μmol of Gd/kg of body weight of metal complex I in rabbits. […]

[4] = proton relaxivity in plasma (R^1), Minispec P 20; assay type: physicochemical; conditions: 40° C., 0.47 tesla, bovine plasma
In short: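 Measured at 40° C. and 0.47 tesla in bovine plasma, with contrast medium at 0.30–1.16 mmol/l. T1 obtained by inversion recovery (180°-TI-90°) over eight measuring points per sequence; relaxivity given in l/mmol·s.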

Compound: COCCN(CCOCCC(F)(F)C(F)(F)C(F)(F)C(F)(F)C(F)(F)C(F)(F)C(F)(F)C(F)(F)F)C(=O)CNC(=O)C(C)N1CCN(CC(=O)[O-])CCN(CC(=O)[O-])CCN(CC(=O)[O-])CC1.[Gd+3] (stereo not drawn) [metal complex X]
- 2 Rh (hydrodynamic micelle diameter) [1]: 5.4 nm
- signal in healthy lymph node tissue (T1-weighted gradient-echo images) (iliac lymph nodes): strong signal rise
- enhancement in the healthy lymph node tissue (iliac lymph nodes; 15 minutes p.i.): 382%
- ratio of signal intensities of healthy lymph node tissue to metastasis (iliac lymph nodes; 15 minutes p.i.): 3.0
- enhancement in the healthy lymph node tissue (iliac lymph nodes; 60 minutes p.i.): 419%
- ratio of signal intensities of healthy lymph node tissue to metastasis (iliac lymph nodes; 60 minutes p.i.): 3.4
- signal in zones within the lymph node diagnosed as metastases (confirmed histologically) (iliac lymph nodes; early images): without signal rise
- signal in the infarction area (T1-weighted spin-echo images) (myocardial infarction): strong signal rise
- metal content ([2]; Blood): 1 μmol Gd/L
- metal content, % Dose ([2]; Blood): 0.01 % Dose
- metal content ([2]; Brain): 1 μmol Gd/L
- metal content, % Dose ([2]; Brain): 0.01 % Dose
- metal content ([2]; Carcass): 192 μmol Gd/L
- metal content, % Dose ([2]; Carcass): 34.01 % Dose
- metal content ([2]; Femur): 3 μmol Gd/L
- metal content, % Dose ([2]; Femur): 0.01 % Dose
- metal content ([2]; Heart): 3 μmol Gd/L
- metal content, % Dose ([2]; Heart): 0.01 % Dose
- metal content ([2]; Intestine): 65 μmol Gd/L
- metal content, % Dose ([2]; Intestine): 1.22 % Dose
- metal content ([2]; Kidneys): 150 μmol Gd/L
- metal content, % Dose ([2]; Kidneys): 0.65 % Dose
- metal content ([2]; Liver): 104 μmol Gd/L
- metal content, % Dose ([2]; Liver): 2.34 % Dose
- metal content ([2]; Lung): 18 μmol Gd/L
- metal content, % Dose ([2]; Lung): 0.05 % Dose
- metal content ([2]; Mesenteric lymph nodes): 19 μmol Gd/L
- metal content, % Dose ([2]; Mesenteric lymph nodes): 0.01 % Dose
- metal content ([2]; Muscle): 1 μmol Gd/L
- metal content, % Dose ([2]; Muscle): 0.00 % Dose
- metal content ([2]; Pancreas): 6 μmol Gd/L
- metal content, % Dose ([2]; Pancreas): 0.02 % Dose
- metal content ([2]; Peripheral lymph nodes): 11 μmol Gd/L
- metal content, % Dose ([2]; Peripheral lymph nodes): 0.01 % Dose
- metal content ([2]; Spleen): 54 μmol Gd/L
- metal content, % Dose ([2]; Spleen): 0.07 % Dose
- metal content ([2]; Stomach): 49 μmol Gd/L
- metal content, % Dose ([2]; Stomach): 0.18 % Dose
- metal content, % Dose ([2]; Total): 38.58 % Dose
- enhancement of the primary tumor (especially the periphery) ([3]; 15 minutes p.i.): 277%
- enhancement of the primary tumor (center of the tumor) ([3]; 24 hours p.i.): 217%
- R^1 Plasma (relaxivity) [4]: 25.7 mmol⁻¹ s⁻¹
